Calls of active or inactive are those of the source. The calls are words filed in the database; no cut-off is given here.
Experiments:
A549 [1] = test: Antiproliferative activity against human A549 cells assessed as inhibition of cell proliferation incubated for 48 hrs by MTT assay; format: functional, cell-based; conditions: A549, 48 h
NCI-H1975 = test: Antiproliferative activity against human NCI-H1975 cells assessed as inhibition of cell proliferation incubated for 48 hrs by MTT assay; format: functional, cell-based; conditions: NCI-H1975, 48 h
NCI-H3122 = test: Antiproliferative activity against human NCI-H3122 cells assessed as inhibition of cell proliferation incubated for 48 hrs by MTT assay; format: functional, cell-based; conditions: NCI-H3122, 48 h
[2] = Cytotoxicity against human WI-38 cells assessed as inhibition of cell proliferation incubated for 48 hrs by MTT assay; format: toxicity, cell-based
[3] = Cytotoxicity against human WI-26 AV4 cells assessed as inhibition of cell proliferation incubated for 48 hrs by MTT assay; format: toxicity, cell-based
[4] = Cytotoxicity against human MCF-10A cells assessed as inhibition of cell proliferation incubated for 48 hrs by MTT assay; format: toxicity, cell-based
[5] = Cytotoxicity against human Intestine 407 cells assessed as inhibition of cell proliferation incubated for 48 hrs by MTT assay; format: toxicity, cell-based
[6] = Therapeutic index, ratio of IC50 for cytotoxicity against human WI-38 cells to IC50 for antiproliferative activity against human A549 cells by MTT assay; format: toxicity, cell-based; conditions: WI-38 cells versus A549 cells, read-out: Ratio IC50
[7] = Therapeutic index, ratio of IC50 for cytotoxicity against human WI-26 AV4 cells to IC50 for antiproliferative activity against human A549 cells by MTT assay; format: toxicity, cell-based; conditions: WI-26 AV4 cells versus A549 cells, read-out: Ratio IC50
[8] = Therapeutic index, ratio of IC50 for cytotoxicity against human MCF-10A cells to IC50 for antiproliferative activity against human A549 cells by MTT assay; format: toxicity, cell-based; conditions: MCF-10A cells versus A549 cells, read-out: Ratio IC50
[9] = Therapeutic index, ratio of IC50 for cytotoxicity against human Intestine 407 cells to IC50 for antiproliferative activity against human A549 cells by MTT assay; format: toxicity, cell-based; conditions: Intestine 407 cells versus A549 cells, read-out: Ratio IC50
[10] = Therapeutic index, ratio of IC50 for cytotoxicity against human WI-38 cells to IC50 for antiproliferative activity against human NCI-H1975 cells by MTT assay; format: toxicity, cell-based; conditions: WI-38 cells versus NCI-H1975 cells, read-out: Ratio IC50
[11] = Therapeutic index, ratio of IC50 for cytotoxicity against human WI-26 AV4 cells to IC50 for antiproliferative activity against human NCI-H1975 cells by MTT assay; format: toxicity, cell-based; conditions: WI-26 AV4 cells versus NCI-H1975 cells, read-out: Ratio IC50
[12] = Therapeutic index, ratio of IC50 for cytotoxicity against human MCF10A cells to IC50 for antiproliferative activity against human NCI-H1975 cells by MTT assay; format: toxicity, cell-based; conditions: MCF10A cells versus NCI-H1975 cells, read-out: Ratio IC50
[13] = Therapeutic index, ratio of IC50 for cytotoxicity against human Intestine 407 cells to IC50 for antiproliferative activity against human NCI-H1975 cells by MTT assay; format: toxicity, cell-based; conditions: Intestine 407 cells versus NCI-H1975 cells, read-out: Ratio IC50
[14] = Therapeutic index, ratio of IC50 for cytotoxicity against human WI-38 cells to IC50 for antiproliferative activity against human NCI-H3122 cells by MTT assay; format: toxicity, cell-based; conditions: WI-38 cells versus NCI-H3122 cells, read-out: Ratio IC50
[15] = Therapeutic index, ratio of IC50 for cytotoxicity against human WI-26 AV4 cells to IC50 for antiproliferative activity against human NCI-H3122 cells by MTT assay; format: toxicity, cell-based; conditions: WI-26 AV4 cells versus NCI-H3122 cells, read-out: Ratio IC50
[16] = Therapeutic index, ratio of IC50 for cytotoxicity against human MCF-10A cells to IC50 for antiproliferative activity against human NCI-H3122 cells by MTT assay; format: toxicity, cell-based; conditions: MCF-10A cells versus NCI-H3122 cells, read-out: Ratio IC50
[17] = Therapeutic index, ratio of IC50 for cytotoxicity against human Intestine 407 cells to IC50 for antiproliferative activity against human NCI-H3122 cells by MTT assay; format: toxicity, cell-based; conditions: Intestine 407 cells versus NCI-H3122 cells, read-out: Ratio IC50
A549 [18] = test: Anti-clonogenic activity against human A549 cells assessed as reduction in size and number of surviving clones incubated for 7 days by crystal violet staining method; format: functional, cell-based; conditions: A549, 168 h
WI-38 [19] = test: Cytotoxicity against human WI-38 cells assessed as reduction in size and number of surviving clones incubated for 7 days by crystal violet staining method; format: toxicity, cell-based
A549 [20] = test: (§1) Radiosensitization activity against human A549 cells assessed as potentiation of radiation-induced cytotoxicity by measuring dose modification factor at 0.5 uM pre-irradiated with gamma radiation at 4 Gy followed by incubation with drug and measured after 7 days by clonogenic assay relative to control; format: functional; conditions: time 7 day
WI-38 [21] = test: Radioprotective activity against human WI-38 cells assessed as inhibition of radiation-induced cytotoxicity by measuring dose modification factor at 0.5 uM incubated for 24 hrs followed by irradiation with gamma radiation at 2 to 12 Gy by clonogenic assay relative to control; format: functional
[22] = Increase in GPx activity in human WI-38 cells at 10 uM incubated for 24 hrs relative to control; format: functional
[23] = Increase in TxrR activity in human WI-38 cells at 10 uM incubated for 24 hrs relative to control; format: functional
[24] = Upregulation of GPx1 mRNA expression in human WI-38 cells at 10 uM incubated for 24 hrs by real-time PCR analysis relative to control; format: functional
[25] = Upregulation of TrxR1 mRNA expression in human WI-38 cells at 10 uM incubated for 6 hrs by real-time PCR analysis relative to control; format: functional
[26] = Upregulation of TrxR1 mRNA expression in human WI-38 cells at 10 uM incubated for 24 hrs by real-time PCR analysis relative to control; format: functional
GR = test: Reduction in intracellular activity of GR in human WI-38 cells at 150 uM incubated for 24 hrs relative to control; format: toxicity, cell-based
GST = test: Reduction in intracellular activity of GST in human WI-38 cells at 150 uM incubated for 24 hrs relative to control; format: toxicity, cell-based
[27] = Drug reactivity with trichloromethyl peroxyl radical (CCl3O2.) assessed as rate constant by ABTS2- based competition assay; format: physicochemical
[28] = Drug reactivity with H2O2 assessed as rate constant by absorbance based analysis; format: physicochemical
[29] = Drug reactivity with Hypochlorous acid (HOCl) assessed as rate constant by CBA based competition assay; format: physicochemical
A549 [30] = test: as §1, with “at 4.5” for “at 4”; format: functional; conditions: time 7 day
WI-38 [31] = test: Upregulation of GPx1 mRNA expression in human WI-38 cells at 10 uM incubated for 6 hrs by real-time PCR analysis; format: functional, cell-based
WI-38 [32] = test: Radioprotective activity against human WI-38 cells assessed as recovery of radiation-induced decrease in GPx activity at 10 uM pretreated for 24 hrs followed by irradiation with gamma radiation for 24 hrs; format: functional, cell-based; conditions: time 48.0 hrs
WI-38 [33] = test: Radioprotective activity against human WI-38 cells assessed as recovery of radiation-induced decrease in TrxR activity at 10 uM pretreated for 24 hrs followed by irradiation with gamma radiation for 24 hrs; format: functional, cell-based; conditions: time 48.0 hrs
[34] = Drug reduction in DMSO-d6 in presence of 1 equiv. NAC by 77Se NMR spectroscopy; format: physicochemical

SMILES | IC50 (A549 [1]) | IC50 (NCI-H1975) | IC50 (NCI-H3122) | IC50 at 48 h [2] | IC50 at 48 h [3] | IC50 at 48 h [4] | IC50 at 48 h [5] | selectivity ratio [6] | selectivity ratio [7] | selectivity ratio [8] | selectivity ratio [9] | selectivity ratio [10] | selectivity ratio [11] | selectivity ratio [12] | selectivity ratio [13] | selectivity ratio [14] | selectivity ratio [15] | selectivity ratio [16] | selectivity ratio [17] | IC50 (A549 [18]) | also measured
[2H]C([2H])([Se][Se]C([2H])([2H])C([2H])([2H])C(=O)O)C([2H])([2H])C(=O)O | 15.2 µM | 4.6 µM | 46.5 µM | 1000 µM | 550 µM | 150 µM | 507 µM | 65.7 | 36.2 | 9.8 | 33.3 | 217 | 120 | 45.5 | 110 | 21.5 | 11.8 | 22.4 | 10.8 | 900 nM | IC50 (WI-38 [19]): 35.5 µM; Ratio (A549 [20]): 0.83; Ratio (WI-38 [21]): 1.16; fold change (FC) [22]: ~1.53; fold change (FC) [23]: ~1.71; fold change (FC) [24]: ~1.69; fold change (FC) [25]: ~2.04; fold change (FC) [26]: ~5.17; inhibition at 24 h, 150 µM (GR): 13%; inhibition at 24 h, 150 µM (GST): 8%; K [27]: 0.8 10^8/M/s; K [28]: 3.3 10^-2/M/s; K [29]: 9.5 10^4/M/s
O=C(O)CC[Se][Se]CCC(=O)O | 15.2 µM | 10.6 µM | 21.5 µM | 171 µM | 151 µM | 61.2 µM | 483 µM | 11.2 | 9.9 | 4 | 31.7 | 16.1 | 14.2 | 5.7 | 32.5 | 7.9 | 7 | 2.8 | 3.2 | 1200 nM | IC50 (WI-38 [19]): 17.9 µM; Ratio (A549 [30]): 0.87; Ratio (WI-38 [21]): 1.12; fold change (FC) [22]: ~1.34; fold change (FC) [23]: ~2; Activity (WI-38 [31]): inactive; Activity (WI-38 [31]; tested as the 2H-labelled form): inactive; fold change (FC) [24]: ~1.73; fold change (FC) [25]: ~4.02; fold change (FC) [26]: ~6.06; Activity (WI-38 [32]): Active; Activity (WI-38 [32]; tested as the 2H-labelled form): Active; Activity (WI-38 [33]): Active; Activity (WI-38 [33]; tested as the 2H-labelled form): Active; inhibition at 24 h, 150 µM (GR): 32%; inhibition at 24 h, 150 µM (GST): 24%; K [27]: 1 10^8/M/s; K [28]: 5.2 10^-2/M/s; K [29]: 1.6 10^5/M/s; Drug metabolism [34]: Metabolite_Notdetected

From ChEMBL document CHEMBL5532758, “Deuterium labeling improves the therapeutic index of 3,3'-diselenodipropionic acid as an anticancer agent: insights from redox reactions” (RSC Med Chem, 2024)
